One compound from publication PMC8058344, “ARIH1 signaling promotes anti-tumor immunity by targeting PD-L1 for proteasomal degradation” (Nature Communications, 2021) can be followed below.

For orientation: IC50 means the concentration that inhibits the measured activity by half. Read a high IC50 as weaker potency in that assay.

For assay [1], the system named is PD-L1 in H1975 cells. The assay is described as follows: PD-L1 levels in H1975 cells by immunoblotting and flow cytometry. It is filed as cell-based, human. As to conditions: H1975 cells, 10 μM ES-072 for 12 h. The protocol: Fig. 1 EGFR inhibitors were screened to reduce membrane PD-L1 levels. a High-throughput screening of 2125 FDA-approved drugs or drug candidates. U937 cells were incubated with IFNγ (100 ng/mL) for 48 h, treated with the drugs at 10 μM for 12 h. Ruxolitinib (Rux) was used as a positive control. The hit compounds that induced the decrease of PD-L1 levels are shown in blue. The depth of blue represents decreased level of PD-L1. The heatmap represents the targeted pathways obtained from the high-throughput screening, based upon decreased membrane PD-L1 level detected by flow cytometry. b Immunoblotting of PD-L1 in U937 cells treated with ES-072 (ES) or AZD9291 (AZD) at indicated concentrations for 12 h. ES and AZD are EGFR inhibitors. c, d Median fluorescence intensity (MFI) (c) and relative quantification (d) of PD-L1 in U937 cells treated with 10 μM ES-072 or 10 μM AZD9291 for 12 h. Data represent means ± SEM, n = 18, 6 independent repeats, ****P < 0.0001. e–g Immunoblotting (e, f) and flow cytometry (g) analysis of PD-L1 levels in U937 cells treated with 10 μM ES-072 or 10 μM AZD9291 for the indicated times. h, i Immunoblottings (h) of PD-L1 and β-TrCP, relative quantification (i) of PD-L1 MFI in H1975 cells transfected with non-targeting siRNA (si-CTRL) or β-TrCP siRNAs (si-β-TrCP) and treated with or without 10 μM ES-072/AZD9291 for 12 h. Data represent means ± SEM, n = 9, 3 independent repeats, NS: no significant; ****P < 0.0001. j–l Immunoblotting (j) and flow cytometry analysis (k) with relative quantification (l) of PD-L1 in H1975 cells treated with 10 μM ES-072 or AZD9291, and/or 5 μM LY2090314 (LY) for 12 h. […]
Fig. 5 GSK3α-mediated phosphorylation of PD-L1 promotes PD-L1-ARIH1 interaction and ARIH1-induced degradation. a Co-IP analysis for the interaction of K48-ubiquitin, ARIH1 (HA), and PD-L1 in HEK293T cells transfected with HA-ARIH1 and Flag-PD-L1 (WT, S279A, S283A, or 2SA), treated with MG132 (10 μM) for 6 h; HA-tagged empty vector (HA-EV) was transfected as a negative control. b Co-IP analysis for the interaction of ARIH1 and PD-L1 in HEK293T cells transfected with HA-ARIH1 and Flag-PD-L1 (WT or 2SA), treated with 10 μM ES-072 for 24 h, Flag-tagged empty vector (Flag-EV) was transfected as a negative control. c HEK293T cells were transfected with Flag-PD-L1. Co-IP analysis for the interaction of ubiquitin and PD-L1 in HEK293T cells transfected with ARIH1-siRNAs or HA-GSK3α and treated with MG132 (10 μM) for 6 h; non-targeting siRNA (si-CTRL) was transfected as a negative control. d Immunoblots of PD-L1 and ARIH1 (HA) in H1975 cells transfected with HA-ARIH1, treated with or without 5 μM LY for 6 h. e, f MFI (e) and relative quantification (f) of PD-L1 in HA-ARIH1-overexpressed H1975 cells, treated with or without 5 μM LY for 6 h. […]

Assay [2] deals with EGFR (Homo sapiens, UniProt P00533). The assay is described as follows: In vitro kinase specificity profiling. The format is biochemical. Particulars: EGFR wild-type.
Chain of EGFR (P00533 25-1210): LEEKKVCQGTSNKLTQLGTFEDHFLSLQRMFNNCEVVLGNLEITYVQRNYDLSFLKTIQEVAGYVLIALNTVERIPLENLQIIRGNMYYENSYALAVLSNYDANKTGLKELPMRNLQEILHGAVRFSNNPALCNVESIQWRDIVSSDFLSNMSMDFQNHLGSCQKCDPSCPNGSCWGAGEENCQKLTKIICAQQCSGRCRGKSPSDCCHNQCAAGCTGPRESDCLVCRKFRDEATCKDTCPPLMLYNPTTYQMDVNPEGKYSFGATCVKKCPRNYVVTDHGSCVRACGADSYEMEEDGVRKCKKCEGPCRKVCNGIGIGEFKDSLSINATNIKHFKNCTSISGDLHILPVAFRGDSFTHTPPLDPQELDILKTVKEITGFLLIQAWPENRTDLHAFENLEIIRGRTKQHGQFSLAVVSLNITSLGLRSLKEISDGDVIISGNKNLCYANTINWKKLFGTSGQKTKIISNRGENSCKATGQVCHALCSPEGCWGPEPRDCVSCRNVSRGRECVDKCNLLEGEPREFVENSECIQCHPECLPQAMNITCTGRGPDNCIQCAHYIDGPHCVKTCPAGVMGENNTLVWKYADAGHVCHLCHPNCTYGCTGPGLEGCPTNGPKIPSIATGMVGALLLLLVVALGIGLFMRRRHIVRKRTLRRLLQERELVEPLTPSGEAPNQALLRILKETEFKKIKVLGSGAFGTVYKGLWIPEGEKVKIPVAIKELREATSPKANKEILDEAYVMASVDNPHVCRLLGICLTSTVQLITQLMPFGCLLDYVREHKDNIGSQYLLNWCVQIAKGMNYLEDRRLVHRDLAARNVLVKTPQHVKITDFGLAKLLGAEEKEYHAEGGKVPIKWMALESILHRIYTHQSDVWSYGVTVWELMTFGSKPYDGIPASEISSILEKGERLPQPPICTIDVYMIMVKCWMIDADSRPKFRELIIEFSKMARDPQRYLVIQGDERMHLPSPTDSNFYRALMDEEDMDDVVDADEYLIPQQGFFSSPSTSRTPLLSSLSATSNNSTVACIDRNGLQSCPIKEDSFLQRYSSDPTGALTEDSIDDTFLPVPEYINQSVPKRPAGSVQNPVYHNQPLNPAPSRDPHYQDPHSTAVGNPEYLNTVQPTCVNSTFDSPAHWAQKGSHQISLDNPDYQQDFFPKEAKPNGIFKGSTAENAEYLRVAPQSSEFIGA

As to `C=CC(=O)Nc1cccc(Nc2nc(Nc3ccc(N4CCN(C)CC4)nc3OC)ncc2C(F)(F)F)c1` [ES-072], the “PD-L1 level in whole cell lysate (WCL) and outer membrane protein (OMP)” value in assay [1] is “decreased”. The compound further showed an IC50 in assay [2] of 8.9 nM.
